Values joined by “and” are separate entries in the source; they are usually repeats but may differ in a detail not shown here. Equal values may be shown once.
How the values were obtained:
[1] = system: rats with CYP-induced cystitis; test: Cystometry in conscious rats with cyclophosphamide (CYP) induced chronic IC, Compound A; format: in vivo, rat; parameters: Bl. Cap. / FP / TP / MP / amplitude of NVBC: unit not given here; conditions: Compound A oral 0.1 μg/kg daily for 14 days
Source text: The rat model of chemical cystitis induced by intraperitoneal injection of CYP has been Well accepted. CYP is used in clinical practice in the treatment of a number of malignant tumors. One of its metabolites, acrolein, is excreted in urine in large concentrations causing hemorrhagic cystitis associated with symptoms of urinary frequency, urgency and pelvic pain. The inflammatory process is characterized by changes in gross histology of bladder, increase in number and distribution of inflammatory cell infiltrates (mast cells, macrophage, PMNs), cyclo-oxygenase-2 expression and prostaglandin production, growth factor and cytokine production. The rat model of chemical cystitis closely resembles interstitial cystitis, a chronic, painful urinary bladder syndrome and has been used for the testing of therapeutic agents in the past.
This model was used to test the effects of oral administration of 1,25-dihydroxyvitamin D3 analogue in rats with CYP-induced cystitis. The effects of the treatment on the cystometric parameters in a conscious freely moving rat with CYP-induced cystitis were monitored. The following cystometric parameters were recorded in each animal: • bladder capacity • filling pressure (pressure at the beginning of the bladder filling) • threshold pressure (bladder pressure immediately prior to micturition) • micturition pressure (the maximal bladder pressure during micturition) • presence or absence of non-voiding bladder contractions (increases in bladder pressure of at least 10 cm H2O without release of urine) • amplitude of non-voiding bladder contraction.
Animals: Wistar female rats, age 8 weeks, weighing 125-175 g were used. […] Following recovery all animals received three intraperitoneal injections of CYP and subsequently were divided into the treatment and sham control groups.
Treatment group: Rats treated with oral 1,25-dihydroxyvitamin D3 analog (1,3-Di-O-acetyl-1,25-dihydroxy-16,23Z-diene-26,27-hexafluoro-19-nor-cholecalciferol) “Compound A” for 14 days (daily dose of 0.1 μg/kg)
Cystometry was performed 24 hours following the last dose of the drug or vehicle on awake freely moving animals.
A lower midline abdominal incision was performed under general inhalation anesthesia (isoflurine with O2) and polyethylene tubing (PE-50, Clay Adams, Parsippany, N.J.) with the end flared by heat was inserted into the dome of the bladder and secured in place with a 6-0 prolene purse string suture. The distal end of the tubing was heat-sealed, tunneled subcutaneously and externalized at the back of the neck, out of the animal's reach. Abdominal and neck incisions were closed with 4-0 nylon sutures.
Following recovery (5 days) subject animals underwent three intraperitoneal injections of CYP (Sigma Chemical, St. Luis, Mo.; 75 mg/kg each, intraperitoneal) over the period of nine days. On the tenth day following the first CYP injection the sham control animals received the vehicle only, whereas the experimental group were treated with the 1,25-dihydroxyvitamin D3 analogue 1,3-Di-O-acetyl-1,25-dihydroxy-16,23Z-diene-26,27-hexafluoro-19-nor-cholecalciferol “Compound A” (delivered orally using gavage). Two weeks following the initiation of the treatment animals underwent a conscious cystometrogram to assess the function of the urinary bladder.
An animal was placed unrestrained in a cage and the catheter was connected via a T-tube to a pressure transducer (Grass® Model PT300, West Warwick, R.I.) and microinjection pump (Harvard Apparatus 22, South Natick, Mass.). A 0.9% saline solution was infused at room temperature into the bladder at a rate of 10 ml/hour. […]. At least three reproducible micturition cycles were recorded after the initial stabilization period of 25-30 minutes.

[2] = system: rat bladders (CYP-induced cystitis); test: Histological analysis of rat bladders from the CYP cystitis experiment; format: in vivo
Experimental: Rat bladders from the experiments of Example 1 were fixed in formalin, embedded in paraffin and stained with hematoxylin and eosin by methods known in the art.
Histopathological examination was performed on at least 10 sections per bladder. Different inflammatory parameters were considered:
infiltration of inflammatory cells (mostly lymphocytes and monocytes)
and were scored as follows: 0=normal without any sign of inflammation, 1=mild, 2=moderate, 3=severe, 4=severe signs diffused across all of the section.
Table 3 refers to vehicle treated animals and Table 4 to “Compound A” treated animals. Each inflammatory parameter was scored from 0 to 4, where 0 is normal and 4 the most severe symptom.

[3] = Calcemia assessment in CYP rats (colorimetric serum calcium assay); format: in vivo, rat; conditions: both dosage levels (30 and 75 ug/kg); limit of normal range 10.7 mg/dl in rats
Experimental: Serum calcemia was evaluated by a commercially available calorimetric assay (Calcium Dry-Fast, Sentinel CH. Italy). Briefly, 10 ul serum were added to 100 ul reaction solution prepared according to the manufacturer's procedure in a 96-wells plate. After 5 min incubation at RT samples were read at 570 nm with a spectrophotometer and the calcium levels were calculated in triplicate by using a standard reference as directed.

[4] = Body weight in allergic IC mice; format: in vivo, mouse; conditions: 75 ug/kg oral vs control animals; daily timepoints
Experimental: An ethanol stock solution of Compound B (1 mg/ml) was dissolved in Miglyol vehicle at the appropriate concentration. Control animals received the vehicle containing the same amount of ethanol. Drug (or vehicle) treatment was carried out by daily gavage after weighing the animal. Drug solution was prepared calculating a final volume of 100 ul/10 grams body weight, and treatment was started on the day of the first intravesical ovalbumin challenge, maintained daily, but discontinued over the weekends, for 12 days total treatment. FIG. 7 illustrates the timeline of the experiment.

[5] = individual rats, score 0 (normal) to 4 (most severe), Compound A 0.1 μg/kg oral 14 days
[6] = mean of 4 Compound A treated rats, score 0-4

Which “Bl. Cap.” value ([1]; CYP cystitis, individual rats RB7, RB13, RB15, three micturition cycles each) does the source give for `CC(=O)OC1C/C(=C/C=C2\CCC[C@]3(C)C(C(C)C/C=C\C(O)(C(F)(F)F)C(F)(F)F)=CCC23)C[C@@H](OC(C)=O)C1` (stereo partly drawn) [Compound A, 1,3-Di-O-acetyl-1,25-dihydroxy-16,23Z-diene-26,27-hexafluoro-19-nor-cholecalciferol] here?
The value was 1.9 and 1.3 (2×) and 2.5 and 1.5 and 0.7 (2×) and 0.8 and 1.4.

And the “amplitude of NVBC” value ([1]; individual rats, three micturition cycles each)?
Its value is 10 and 11 (2×) and 0 (6×).

And the FP ([1]; filling pressure, individual rats, three micturition cycles each)?
Its FP is 15 and 14 (3×) and 12 and 11 and 10 and 13 (2×).

What about the MP ([1]; micturition pressure, individual rats, three micturition cycles each) of the same molecule?
The MP was 105 and 97 (2×) and 90 and 100 and 108 and 98 and 101 and 104.

What about the “# of NVBC” value ([1]; non-voiding bladder contractions, individual rats, three micturition cycles each) of the same molecule?
The value was 4 and 8 (2×) and 0 (6×).

And the TP ([1]; threshold pressure, individual rats, three micturition cycles each)?
Its TP is 16 and 17 and 14 (4×) and 12 and 11 and 15.

And the “EPITHELIAL EROSION histological score” value [2, 5]?
The value was 0.

And the FIBROSIS histological score [2, 5]?
The FIBROSIS histological score was 0.

And the HEMOSTASIS histological score [2, 5]?
Its HEMOSTASIS histological score is 0 and 1 and 0.5 (2×).

What about the INFILTRATION histological score [2, 5] of the same molecule?
Its INFILTRATION histological score is 0.5 (2×) and 1 and 2.

What about the EDEMA histological score ([2]; individual rats, score 0 normal, 1 mild, 2 moderate, 3 severe, 4 severe diffused, Compound A 0.1 μg/kg oral 14 days) of the same molecule?
Its EDEMA histological score is 0.5 and 0 (2×) and 2.

What about the “EDEMA histological score, MEAN” value [2, 6] of the same molecule?
The value was 0.63.

And the “EPITHELIAL EROSION histological score, MEAN” value [2, 6]?
The value was 0.

And the “FIBROSIS histological score, MEAN” value [2, 6]?
Its value is 0.

And the “HEMOSTASIS histological score, MEAN” value [2, 6]?
Its value is 0.5.

And the “INFILTRATION histological score, MEAN” value [2, 6]?
Its value is 1.

Which “average serum calcium levels” value [3] does the source give for `C=C1/C(=C\C=C2/CCC[C@]3(C)C([C@@H](C)C/C=C/C(O)(CC)CC)=CC[C@@H]23)C[C@@H](O)C[C@@H]1F` [Compound B, 1-alpha-fluoro-25-hydroxy-16,23E-diene-26,27-bishomo-20-epi-cholecalciferol] here?
The value was “only slightly but not significantly elevated”.

What about the body weight [4] of the same molecule?
The body weight was “no significant difference”.

From US20080039434A1, “Treatment of Interstitial Cystitis with Vitamin D Compounds” (BioXell S. p.A., priority 2004, published 2008)
